The subject of data set [1] is copper "scavenging" of superoxide anion produced by the hypoxanthine/xanthine oxidase system. Put plainly: Copper "scavenging" effect (superoxide anion from hypoxanthine/xanthine oxidase system, cytochrome C). Type of data set: biochemical. The note with it: for % Reduction (effect on copper "scavenging" action): hypoxanthine/xanthine oxidase, cytochrome c.
Description: The study involves the production of superoxide anion by means of the hypoxanthine/xanthine oxidase system and the target is the reduction in cytochrome C iron content. […] Copper chelants inhibit such a "scavenging" effect.
Data set [2] in a line: Adjuvant arthritis (Freund's complete adjuvant) in the rat: paw volume, radiography, histology. Type of data set: in vivo, rat (albino Sprague Dawley). The note with it: for inhibition (reduction) of the increase in the volume of the left rear paw / inhibition of the increase in the volume of the right paw: 20 mg/kg orally, ten days; for Volume increase in the oedema after 15 days, left paw / Volume increase in the oedema after 15 days, right paw: 20 mg/kg/os; for Volume increase in the oedema after 15 days, left paw: left (adjuvant-injected) rear paw, control 252 ± 26; for Volume increase in the oedema after 15 days, right paw: right rear paw, control 77 ± 29. How it is done:
The test evaluates the effect of the compounds anthraquinone-2,6-disulfonicacid and N,N'-diethylanthraquinone-2,6-disulfonamide on rheumatoid arthritis in the rat induced by administration of complete Freund's adjuvant. Diacetylrhein was used as control.
For the test, albino Sprague Dawley rats weighing 200±10 g, were subdivided into four groups of six animals each. All of the compounds were administered orally at a dosage of 20 mg/kg. Arthritis was induced administering all the animals, in the left rear paw, with 5 mg of Freund's complete adjuvant suspended in 0.05 ml of paraffin oil (prior to the treatment, the paw volume of both rear paws was measured). The treatment with the tested products started 5 days after the arthritis induction and was carried out for ten days. Al the end of this time, the animals were killed to effect the analysis of the following evaluation parameters: measurement of the volume of both left and right rear paws; Rx in lateral and antero-posterior position of the tibio-tarsal articulation of the left paw; histology evaluation of the articulation of both left and right rear paws.

The subject of data set [3] is Chinese hamster ovary (CHO) cells. As to the kind of experiment: Test of induction of chromosomal aberrations. Type of data set: cell-based. The note with it: for Metaphases with aberrations: + S-9; for Aberrations complex (C) / Aberrations simple (S) / Aberrations S + C: 100 metaphases. How it is done: The clastogenetic effect of rhein and of 2,6-anthraquinonedisulfonic acid, was evaluated using the test of the induction of chromosomal aberrations in cell cultures of chinese hamster ovary (CHO). In this test, the cell line was treated with the tested substances and with suitable controls, in the presence of a metabolic activation system for four hours. After that, the cell in growth exponential phase were treated with colchicine (Colcemid^R) for 90 minutes, so as to obtain a significant number of cells in metaphase and to recover them for the preparation of the chromosome suspension. As the positive standard, cyclophosphamide was used (1-5-10-12.5-25 μg/ml).
The toxicity of the tested compounds was evaluated by means of the assay of the efficiency of plating, treating the cells for four hours, then seeding them at a concentration of 200 cells/5 ml of fresh culture medium.
On the ground of the results obtained by means of this test, dosages were selected for the treatment in the test of induction of chromosomal aberrations, so as not to exceed, with the highest dosage, 50% toxicity levels.
The chromosomal aberrations were recorded describing the type of structural damage. The numeric aberrations and gaps were discarded. Metaphases showing a good chromosomal opening, a good staining and an acceptable chromosome number (20±2) were selected. For statistical evaluations of the results, the quadratic Chi test was used.

The target in another data set is T1, human cathepsin B (Homo sapiens, UniProt P07858).
T1 construct: purchased Calbiochem
As to the kind of experiment: Effects on human cathepsin B enzymatic activity. In kind it is biochemical. How it is done: (§1) Effects on human cathepsin B and L enzymatic activity
(§2) The anthraquinone monosulfonated and disulfonated compounds were dissolved in distilled water whereas the derivatives thereof were dissolved in dimethylsulfoxide. The concentration of the tested product was added to the reaction mixture in a volume of 100 μl.
(§3) Composition of the reaction mixture: 0.005M acetate buffer pH 6.0+2 mM cysteine+1 mM EDTA; Enzyme 1 U/ml (cathepsin B or L) (Calbiochem); substrate 0.2 mM Z-Phe-Arg-AMC (Novabiochem) final reaction volume 2 ml; temperature 25° C.; observation time for cathepsin B: 2 minutes; for L: 8 minutes. This is a fluorimetric determination wherein the excitation wavelength was 380 nm, the emission one being instead 460 nm. Fluorescence was read by means of a Perkin-Elmer spectrophotometer mod. LS-3B.
Anthraquinone-2,6-disulfonic acid: 1-5-10 μM
Anthraquinone-1,5-disulfonic acid: 1-5-10 μM
N,N'-(p-Ethoxyphenyl)-2,6-anthraquinone-disulfonamide: 1-10 μM.

Another data set has as its target T2, human cathepsin L (Homo sapiens, UniProt P07711).
T2 construct: purchased Calbiochem
As to the kind of experiment: Effects on human cathepsin L enzymatic activity. Type of data set: biochemical. How it is done: as §1, §2, §3

Where [4] appears, read: M (mean of experiments 1-3), read-out: % Inhibition.
Where [5] appears, read: experiment n. 1, read-out: % Inhibition.
Setting [6] is: experiment n. 2, read-out: % Inhibition.
Setting [7] is: experiment n. 3, read-out: % Inhibition.

Where two headings read alike, the source gives them in different places.

T2 sequence (P07711 114-288 limits assumed): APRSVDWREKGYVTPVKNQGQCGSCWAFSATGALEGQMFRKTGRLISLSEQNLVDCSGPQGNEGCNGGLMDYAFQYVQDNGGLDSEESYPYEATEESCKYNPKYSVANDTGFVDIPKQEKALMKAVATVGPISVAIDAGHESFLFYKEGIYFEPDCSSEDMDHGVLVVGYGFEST
T2 sequence (P07711 292-333 limits assumed): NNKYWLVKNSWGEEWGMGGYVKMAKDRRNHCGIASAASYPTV

Consider `O=C1c2ccccc2C(=O)c2c1cccc2S(=O)(=O)O` [1-AQ, 1-anthraquinonesulfonic acid], for which, in data set [1], the “inhibition of copper "scavenging" effect (in words)” value was “nearly inactive” and the “% Reduction (effect on copper "scavenging" action)” value stood at 3%.

With `O=C1c2ccc(S(=O)(=O)O)cc2C(=O)c2ccc(S(=O)(=O)O)cc21` [2,6-anthraquinonedisulfonic acid], in data set [2], the “inhibition (reduction) of the increase in the volume of the left rear paw” value was determined as 18.6%. Besides, in data set [2], the “inhibition of the increase in the volume of the right paw” value is given as 67.5%. In addition, the “Volume increase in the oedema after 15 days, left paw” value in data set [2] was 205 ± 41. In data set [2], the “Volume increase in the oedema after 15 days, right paw” value was 25 ± 20. In addition, the Metaphases with aberrations was 2 in data set [3] (50 μg/ml, 100 total metaphases, N.S.); 4 in data set [3] (100 μg/ml, 100 total metaphases, N.S.); 8 in data set [3] (150 μg/ml, 100 total metaphases, N.S.); 8 in data set [3] (200 μg/ml, 100 total metaphases, N.S.); 6 in data set [3] (250 μg/ml, 100 total metaphases, N.S.). Besides, the “induction of chromosomal aberrations (in words)” value in data set [3] (50-250 μg/ml) is “induces no chromosomal aberrations”. Also, the inhibition at 1 µM against human cathepsin B (M (mean of experiments 1-3)) amounted to 40.7%; at human cathepsin B (experiment n. 1), 43.7%; on human cathepsin B (experiment n. 2), 33.7%; on human cathepsin B (experiment n. 3) it was 38.5%; at human cathepsin L (M (mean of tests 1-3)), 35.6%; at human cathepsin L (test n. 1), 39.6%. The results for the inhibition at 1 µM against human cathepsin L (test n. 2) and at human cathepsin L (test n. 3) were 31.4% and 35.8%, respectively. The inhibition at 5 µM against human cathepsin B (M (mean of experiments 1-3)) came to 70.1%; on human cathepsin B (experiment n. 1), 68.5%; on human cathepsin B (experiment n. 2) it was 65.8%; against human cathepsin B (experiment n. 3), 76%. The inhibition at 10 µM stood at 94.9% on human cathepsin B (M (mean of experiments 1-3)); 98.9% at human cathepsin B (experiment n. 1); 98.2% against human cathepsin B (experiment n. 2); 87.7% against human cathepsin B (experiment n. 3); 94.5% on human cathepsin L (M (mean of tests 1-3)); 92.1% at human cathepsin L (test n. 1). Besides, the inhibition at 10 µM came out at 96.5% at human cathepsin L (test n. 2) and 94.8% at human cathepsin L (test n. 3).

For `O=C1c2ccccc2C(=O)c2cc(S(=O)(=O)O)ccc21` [2-AQ, 2-anthraquinonesulfonic acid], in data set [1], the “inhibition of copper "scavenging" effect (in words)” value was “nearly inactive” and the “% Reduction (effect on copper "scavenging" action)” value turned out to be 5%.

For the compound `O=P1(N(CCCl)CCCl)NCCCO1` (stereo not drawn) [CPS, Cyclophosphamide], the Metaphases with aberrations was 10 in data set [3] (1 μg/ml, 100 total metaphases, N.S.); 25 in data set [3] (5 μg/ml, 100 total metaphases, P < 0.001); 12 in data set [3] (10 μg/ml, 32 total metaphases, P < 0.001, control 13 of 220). In addition, the “Aberrations complex (C)” value in data set [3] (CPS 12.5 μg/ml) turned out to be 44; in data set [3] (CPS 25 μg/ml, control 4 of 400), 87. Also, the “Aberrations simple (S)” value in data set [3] (CPS 12.5 μg/ml) was 0; in data set [3] (CPS 25 μg/ml, control 8 of 400) it was 0. Also, the “Aberrations S + C” value in data set [3] (CPS 12.5 μg/ml, P < 0.001) is on record as 44; in data set [3] (CPS 25 μg/ml, P < 0.001, control 12 of 400), 87.

As to `CCOc1ccc(NS(=O)(=O)c2ccc3c(c2)C(=O)c2ccc(S(=O)(=O)Nc4ccc(OCC)cc4)cc2C3=O)cc1` [N,N'-(p-Ethoxyphenyl)-2,6-anthraquinonedisulfonamide], the inhibition at 1 µM on human cathepsin B (setting [4]) came out at 19%; on human cathepsin B (setting [5]) it was 23.7%; on human cathepsin B (setting [6]), 18.6%; at human cathepsin B (setting [7]) it was 14.8%; on human cathepsin L (M (mean of tests 1-3)) it was 8.8%; against human cathepsin L (test n. 1), 8.5%. For the same compound, the inhibition at 1 µM came out at 7.1% at human cathepsin L (test n. 2) and 10.9% at human cathepsin L (test n. 3). For the same compound, the inhibition at 10 µM on human cathepsin B (setting [4]) was 80.2%; on human cathepsin B (setting [5]) it was 76.6%; at human cathepsin B (setting [6]) it was 80.6%; at human cathepsin B (setting [7]), 83.4%; at human cathepsin L (M (mean of tests 1-3)) it was 55.2%; against human cathepsin L (test n. 1), 53.6%. The inhibition at 10 µM against human cathepsin L (test n. 2) was 48.1%; against human cathepsin L (test n. 3), 63.8%.

As to `CCNS(=O)(=O)c1ccc2c(c1)C(=O)c1ccc(S(=O)(=O)NCC)cc1C2=O` [N,N'-Diethyl-2,6-anthraquinonedisulfonamide], in data set [2], the “inhibition (reduction) of the increase in the volume of the left rear paw” value was 21.4%; the “inhibition of the increase in the volume of the right paw” value is recorded as 62.3%; the “Volume increase in the oedema after 15 days, left paw” value is listed as 198 ± 31; the “Volume increase in the oedema after 15 days, right paw” value was found to be 29 ± 12.

Usually inhibition stands for the drop in the measured response relative to a control, in per cent.

The values above are taken from patent US5856358A, “Mono- and disulfo-substituted anthraquinones and their use for the treatment of bone matrix disorders” (priority 1995, dated 1999).
